Measured values from ChEMBL document CHEMBL5634141 (Eur J Med Chem, 2023).
Active and inactive are the calls of the source. No cut-off for these calls is given here.

Assays:
NCI-H358 [1] = experiment: Induction of apoptosis in human NCI-H358 cells assessed as early apoptotic cells at 300 nM incubated for 48 hrs by Annexin V-FITC staining based flow cytometry analysis (reference value: 1.60 %); assay type: functional
[2] = Cmax in ICR mouse at 30 mg/kg, ip measured after 24 hrs by LC-MS/MS analysis; assay type: ADME, organism-based; conditions: in vivo
NCI-H358 [3] = experiment: Induction of apoptosis in human NCI-H358 cells assessed as necrotic cells at 300 nM incubated for 48 hrs by Annexin V-FITC staining based flow cytometry analysis (reference value: 1.62 %); assay type: functional
NCI-H358 [4] = experiment: Antiproliferative activity against human NCI-H358 cells expressing KRAS G12C mutant assessed as relative cell viability at 30 nM incubated for 72 hrs in presence of naporafenib by CCK-8 assay; assay type: functional; conditions: read-out: Activity
MIA PaCa-2 [5] = experiment: Induction of apoptosis in human MIA PaCa-2 cells assessed as necrotic cells at 300 nM incubated for 48 hrs by Annexin V-FITC staining based flow cytometry analysis (reference value: 1.25 %); assay type: functional
[6] = tested on: von Hippel-Lindau disease tumor suppressor/GTPase KRas (Homo sapiens), P01116+P40337 [G12C]; experiment: PROTAC activity at VHL/KRAS G12C mutant in human NCI-H358 cells assessed as induction of protein degradation at 100 nM incubated for 48 hrs by Western blotting analysis relative to control; assay type: cell-based
[7] = tested on: von Hippel-Lindau disease tumor suppressor/GTPase KRas (Homo sapiens), P01116+P40337 [G12C]; experiment: PROTAC activity at VHL/KRAS G12C mutant in human MIA PaCa-2 cells assessed as inhibition of ERK phosphorylation by Western blotting analysis; assay type: cell-based
SW837 [8] = experiment: Antiproliferative activity against human SW837 cells expressing KRAS G12C mutant assessed as relative cell viability at 30 nM incubated for 72 hrs in presence of MK-2206 by CCK-8 assay; assay type: functional; conditions: read-out: Activity
SW837 [9] = experiment: Antiproliferative activity against human SW837 cells expressing KRAS G12C mutant assessed as relative cell viability at 30 nM incubated for 72 hrs in presence of infigratinib by CCK-8 assay; assay type: functional; conditions: read-out: Activity
MIA PaCa-2 [10] = experiment: Antitumor activity against human MIA PaCa-2 cells xenografted in BALB/c nude mouse assessed as increase in percentage of cleaved-caspase 3-positive cells at 10 to 30 mg/kg, ip administered for 16 days by immunohistochemical staining analysis; assay type: functional, organism-based; conditions: dose 10-30 mg/kg, time 16.0 day
[11] = tested on: von Hippel-Lindau disease tumor suppressor/GTPase KRas (Homo sapiens), P01116+P40337 [G12C]; experiment: PROTAC activity at VHL/KRAS G12C mutant in human NCI-H358 cells assessed as induction of protein degradation at 100 nM incubated for 48 hrs followed by compound washout and measured after 48 hrs by Western blotting analysis; assay type: cell-based
NCI-H358 [12] = experiment: Induction of apoptosis in human NCI-H358 cells assessed as viable cells at 30 nM incubated for 48 hrs by Annexin V-FITC staining based flow cytometry analysis (reference value: 91.6 %); assay type: functional; conditions: read-out: Activity
[13] = Tmax in ICR mouse at 30 mg/kg, ip measured after 24 hrs by LC-MS/MS analysis; assay type: ADME, organism-based; conditions: in vivo
[14] = Toxicity in ICR mouse assessed as side effects at 30 mg/kg, ip measured after 24 hrs; assay type: organism-based; conditions: in vivo
MIA PaCa-2 [15] = experiment: Induction of apoptosis in human MIA PaCa-2 cells assessed as early apoptotic cells at 300 nM incubated for 48 hrs by Annexin V-FITC staining based flow cytometry analysis (reference value: 1.55 %); assay type: functional
MIA PaCa-2 [16] = experiment: Induction of apoptosis in human MIA PaCa-2 cells assessed as viable cells at 30 nM incubated for 48 hrs by Annexin V-FITC staining based flow cytometry analysis (reference value: 91.5 %); assay type: functional; conditions: read-out: Activity
NCI-H358 [17] = experiment: Antiproliferative activity against human NCI-H358 cells expressing KRAS G12C mutant assessed as inhibition of cell growth incubated for 72 hrs by CCK-8 assay; assay type: functional, cell-based; conditions: NCI-H358, 72 h
[18] = tested on: von Hippel-Lindau disease tumor suppressor/GTPase KRas (Homo sapiens), P01116+P40337 [G12C]; experiment: PROTAC activity at VHL/KRAS G12C mutant in human NCI-H358 cells assessed as induction of protein degradation at 100 nM preincubated with MG132 for 6 hrs followed by compound addition and measured after 48 hrs by Western blot analysis; assay type: cell-based
NCI-H358 [19] = experiment: Antiproliferative activity against human NCI-H358 cells expressing KRAS G12C mutant assessed as relative cell viability at 30 nM incubated for 72 hrs in presence of selumetinib by CCK-8 assay; assay type: functional; conditions: read-out: Activity
Calu-1 [20] = experiment: Antiproliferative activity against human Calu-1 cells expressing KRAS G12C mutant assessed as relative cell viability at 30 nM incubated for 72 hrs in presence of infigratinib by CCK-8 assay; assay type: functional; conditions: read-out: Activity
[21] = Downregulation of KRAS G12C mutant expression in human NCI-H358 cells assessed as log2 of fold change at 200 nM incubated for 48 hrs by MS-based proteomic analysis; assay type: functional
MIA PaCa-2 [22] = experiment: Antiproliferative activity against human MIA PaCa-2 cells expressing KRAS G12C mutant assessed as inhibition of cell growth at 100 nM incubated for 8 days by CCK-8 assay; assay type: functional, cell-based; conditions: time 8.0 day
[23] = tested on: von Hippel-Lindau disease tumor suppressor/GTPase KRas (Homo sapiens), P01116+P40337 [G12C]; experiment: PROTAC activity at VHL/KRAS G12C mutant in human MIA PaCa-2 cells assessed as inhibition of Akt phosphorylation at 100 nM incubated for 1 to 8 days by Western blotting analysis; assay type: cell-based; conditions: time 1-8 day
[24] = tested on: von Hippel-Lindau disease tumor suppressor/GTPase KRas (Homo sapiens), P01116+P40337 [G12C]; experiment: PROTAC activity at VHL/KRAS G12C mutant in human NCI-H358 cells assessed as induction of protein degradation at 100 nM incubated for 48 hrs followed by compound washout by Western blotting analysis; assay type: cell-based
[25] = tested on: von Hippel-Lindau disease tumor suppressor/GTPase KRas (Homo sapiens), P01116+P40337 [G12C]; experiment: PROTAC activity at VHL/KRAS G12C mutant in human MIA PaCa-2 cells assessed as inhibition of ERK phosphorylation at 100 nM incubated for 1 to 8 days by Western blotting analysis; assay type: cell-based; conditions: time 1-8 day
NCI-H23 = experiment: Antiproliferative activity against human NCI-H23 cells expressing KRAS G12C mutant assessed as relative cell viability at 30 nM incubated for 72 hrs in presence of selumetinib by CCK-8 assay; assay type: functional; conditions: read-out: Activity
Calu-1 [26] = experiment: Antiproliferative activity against human Calu-1 cells expressing KRAS G12C mutant assessed as relative cell viability at 30 nM incubated for 72 hrs in presence of daclolisib by CCK-8 assay; assay type: functional; conditions: read-out: Activity
Calu-1 [27] = experiment: Antiproliferative activity against human Calu-1 cells expressing KRAS G12C mutant assessed as relative cell viability at 30 nM incubated for 72 hrs in presence of MK-2206 by CCK-8 assay; assay type: functional; conditions: read-out: Activity
ASPC1 = experiment: Antiproliferative activity against human ASPC1 cells expressing KRAS G12D mutant assessed as inhibition of cell growth incubated for 72 hrs by CCK-8 assay; assay type: functional, cell-based; conditions: ASPC1, 72 h
MIA PaCa-2 [28] = experiment: Antitumor activity against human MIA PaCa-2 cells xenografted in BALB/c nude mouse assessed as tumor growth inhibition at 10 mg/kg, ip measured after 8 days relative to control; assay type: functional; conditions: MIA PaCa-2, 192 h, time 8 day, read-out: TGI
Mus musculus = experiment: In vivo PROTAC activity at VHL/KRAS G12C mutant in BALB/c nude mouse xenografted with human MIA PaCa-2 cells assessed as decrease in AKT phosphorylation at 10 to 30 mg/kg, ip administered for 16 days by Western blot analysis; assay type: functional, organism-based; conditions: dose 10-30 mg/kg, time 16.0 day

C=CC(=O)N1CCN(c2nc(=O)n(-c3c(C)ccnc3C(C)C)c3nc(-c4c(F)cccc4OCC4CCN(CCCC(=O)N[C@H](C(=O)N5C[C@H](O)C[C@H]5C(=O)NCc5ccc(-c6scnc6C)cc5)C(C)(C)C)CC4)c(F)cc23)[C@@H](C)C1
Activity (NCI-H358 [1]): 4.06% | Cmax [2]: 6460 ng/mL | Activity (NCI-H358 [3]): 1.7% | viability at 0.03 µM (NCI-H358 [4]): 0.36% | Activity (MIA PaCa-2 [5]): 4.08% | Activity [6]: 100% | Activity [7]: Dose-Dependent Effect | viability at 0.03 µM (SW837 [8]): 0.34% | viability at 0.03 µM (SW837 [9]): 0.34% | Activity (MIA PaCa-2 [10]): Active | Activity [11]: inactive | viability at 0.03 µM (NCI-H358 [12]): 89.4% | Tmax [13]: 1.17 h | Activity [14]: Non-Toxic | Activity (MIA PaCa-2 [15]): 9.58% | viability at 0.03 µM (MIA PaCa-2 [16]): 88.8% | IC50 (NCI-H358 [17]): 91 nM | Activity [18]: inactive | viability at 0.03 µM (NCI-H358 [19]): 0.31% | viability at 0.03 µM (Calu-1 [20]): 0.36% | log2FC [21]: >1 | Activity (MIA PaCa-2 [22]): Active | Activity [23]: Active | Activity [24]: Active | Activity [25]: Active | viability at 0.03 µM (NCI-H23): 0.24% | viability at 0.03 µM (Calu-1 [26]): 0.12% | viability at 0.03 µM (Calu-1 [27]): 0.32% | IC50 (ASPC1): > 10000 nM | inhibition in vivo at 10 mg/kg (MIA PaCa-2 [28]): 93.4% | Activity (Mus musculus): Active
